Measured values taken from PubChem BioAssay (NCI).
Where “and” joins values, the source holds several entries; their conditions need not be identical. Equal entries are not always repeated.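 The compound was tested at five concentrations on cells cultured in 96-well plates, with a 48-hour exposure period. At the GI50, growth is halved. Definition used: TGI = concentration required for complete inhibition of growth.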

Key:
Assay in all cases: inhibition of tumour cell growth, NCI panel, 48 h
SK-MEL-2 melanoma = test system: SK-MEL-2 melanoma
MDA-N = test system: MDA-N
HS 578T breast = test system: HS 578T breast
OVCAR-3 ovarian = test system: OVCAR-3 ovarian
SR leukemia = test system: SR leukemia
M14 melanoma = test system: M14 melanoma
HCT-116 colon = test system: HCT-116 colon
BT-549 breast = test system: BT-549 breast
KM12 colon = test system: KM12 colon
SNB-19 CNS = test system: SNB-19 CNS

SMILES	GI50 (SK-MEL-2 melanoma)	TGI (SK-MEL-2 melanoma)	TGI (MDA-N)	TGI (HS 578T breast)	GI50 (OVCAR-3 ovarian)	TGI (OVCAR-3 ovarian)	TGI (SR leukemia)	TGI (M14 melanoma)	TGI (HCT-116 colon)	TGI (BT-549 breast)	GI50 (KM12 colon)	TGI (KM12 colon)	GI50 (SNB-19 CNS)	TGI (SNB-19 CNS)	GI50 (HS 578T breast)	GI50 (M14 melanoma)	GI50 (BT-549 breast)	GI50 (HCT-116 colon)
CC1=C2C(=CO[C@H](C)[C@H]2C)C(=O)C(C(=O)O)=C1O	18700 nM	48.1 µM and 37.5 µM	72.2 µM	96.4 µM	20.2 µM	43.2 µM and 47 µM	66.7 µM	60.9 µM	82.2 µM and 78.5 µM	37.1 µM	19.2 µM	87.5 µM and 48.8 µM	27.9 µM	55.6 µM and > 67.7 µM				
CC(C)(C)OC(=O)NCC(CNC(=O)OC(C)(C)C)c1nc(C(N)=O)cs1		> 100 µM	> 100 µM	> 100 µM		> 100 µM	> 100 µM	> 100 µM	> 100 µM	> 100 µM		> 100 µM		> 100 µM				
C=CCC1C(O[Si](C)(C)C(C)(C)C)C(CO[Si](C)(C)C(C)(C)C)OC1n1ccc(=O)[nH]c1=O (configuration not stated)		4.65 µM	2.89 µM			3.34 µM	18.4 µM	2.96 µM	2.5 µM	3.42 µM		> 100 µM		3.06 µM				
O=c1c(-c2ccccc2)c(SCCO)n(-c2ccccc2)c(=S)n1-c1ccccc1		> 100 µM	> 100 µM	> 100 µM		> 100 µM	> 100 µM	> 100 µM	> 100 µM	> 100 µM		> 100 µM		> 100 µM				
CCN=C1C=CC(=C(c2ccc(N(CC)CC)cc2)c2ccc(N(CC)CC)cc2)c2ccccc21	76.8 nM	0.383 µM		0.533 µM				1.22 µM		0.602 µM			0.0504 µM	1.47 µM	40.8 nM	184 nM	107 nM	
CCOP(=O)(OCC)/C(=C/c1cccs1)CC(C)=O		> 100 µM	> 100 µM	> 100 µM		> 100 µM		> 100 µM	> 100 µM	> 100 µM		> 100 µM		> 100 µM				
CCOC(=O)c1cc2c([N+](=O)[O-])c(N)ccc2s1		> 100 µM	> 100 µM	> 100 µM		> 100 µM		> 100 µM	> 100 µM	> 100 µM		> 100 µM		> 100 µM				
COc1cnc2c(c1)C(=O)c1c-2n(CCCNCCO)c(=O)c2ccncc12	1810 nM	4.75 µM		10.7 µM	2.26 µM	9.73 µM		7.16 µM	16.9 µM	12.7 µM	1.51 µM	11.7 µM			2320 nM	1930 nM	2030 nM	489 nM
O=C1CC(=O)n2cnc3cccc(c32)N1		> 100 µM	> 100 µM	> 100 µM		> 100 µM	> 100 µM	> 100 µM	> 100 µM	> 100 µM		> 100 µM		> 100 µM				
COc1ccc(C(SC2C(O)C(CO)OC2n2ccc(=O)[nH]c2=O)(c2ccccc2)c2ccc(OC)cc2)cc1 (configuration not stated)		31.4 µM	26.1 µM	53.6 µM		37.1 µM		25.8 µM	29.2 µM	33.6 µM		39.2 µM		41 µM				
CC(C)=CCNc1nc(Cl)nc2nc[nH]c12			> 100 µM	> 100 µM		> 100 µM	> 100 µM	> 100 µM	69.8 µM			> 100 µM		> 100 µM				
COC(=O)C1C(=O)N(C)C(=O)N2CCCC12 (configuration not stated)		> 100 µM	> 100 µM	> 100 µM		> 100 µM		> 100 µM				> 100 µM		> 100 µM				
C=C(C)CC1(O[Si](C)(C)C)C(=O)C(OCC)=C1OCC (configuration not stated)		> 100 µM		> 100 µM		> 100 µM		> 100 µM	> 100 µM	> 100 µM		> 100 µM		> 100 µM				
COc1cc(C2C3=C(COC3=O)Oc3cc4c(cc32)OCO4)cc(OC)c1O (configuration not stated)		2.51 µM				19.8 µM	> 100 µM	> 100 µM	0.208 µM	> 100 µM		> 100 µM		27.6 µM				
C/C(=N\Nc1nc2cc(C(F)(F)F)ccc2s1)c1ccccn1		4.69 µM	14.7 µM	14.6 µM		8.85 µM		7.14 µM	2.98 µM	> 40.1 µM		9.03 µM		13.3 µM				
CC1(C)CC(=O)C2(CC(CSc3ccccc3)C(CS(=O)(=O)c3ccccc3)C2)C(=O)C1 (configuration not stated)		> 100 µM		> 100 µM		> 100 µM		> 100 µM	> 100 µM	> 100 µM		> 100 µM		> 100 µM				
CC1(C)CC2(CC(C)(C)N1O)NC(=O)OC2=O		> 100 µM				> 100 µM			> 100 µM			> 100 µM		> 100 µM				
CC(C)/C(Cl)=N\OC(NC(=O)P(=O)(c1ccccc1)c1ccccc1)(C(F)(F)F)C(F)(F)F			63.8 µM	> 100 µM		18.4 µM	59 µM	15.8 µM	21.5 µM			23.1 µM		35.3 µM				
CCOC(=O)c1cc(C)nc2c1c(=O)n(-c1ccccc1)c(=O)n2CCCCN1CCN(c2ccccc2)CC1		> 100 µM		> 100 µM			48.4 µM	> 100 µM	> 100 µM	> 100 µM		> 100 µM						
c1ccc(CN2CCC(Nc3ccccc3)(c3nnnn3Cc3ccccc3)CC2)cc1				> 100 µM			93.2 µM	38.5 µM	53.4 µM			33.3 µM		> 100 µM				
CN(C)CCn1c(CO)nc2c1c(=O)n(C)c(=O)n2C		> 100 µM		> 100 µM		> 100 µM	> 100 µM	> 100 µM	> 100 µM	> 100 µM		> 100 µM		> 100 µM				
Cc1cc(OC(=O)NCn2cc(-c3ccccc3)nn2)ccc1Cl		> 100 µM					> 100 µM	> 100 µM	> 100 µM	> 100 µM		> 100 µM		> 100 µM				
NCC(O)CSCc1ccc(Cl)cc1 (configuration not stated)			> 100 µM	> 100 µM		> 100 µM		> 100 µM	> 100 µM	> 100 µM		> 100 µM		> 100 µM				
